We go through three compounds from ChEMBL document CHEMBL1136600, “Functional expression and characterization of EryA, the erythritol kinase of Brucella abortus, and enzymatic synthesis of L-erythritol-4-phosphate” (Bioorg Med Chem Lett, 2003).

Molecules are shown by their SMILES.

Test [1] relates to Brucella abortus. The experiment in a line: Kinetic parameter against EryA, erythritol kinase of brucella abortus expressed in Escherichia coli.
For test [2], the system named is Propionibacterium acidipropionici. The experiment in a line: Kinetic parameters against EryA, erythritol kinase from Propionibacterium pentosaceum.
The nature of test [3]: Inhibition of 4-diphosphocytidyl-2-C-methyl-d-erythritol (CDP-ME) synthase.

Turning to `OC[C@@H](O)[C@@H](O)CO`, in test [1], the Michaelis-Menten constant (Km) (as a rule, the substrate concentration at which the rate is half of its maximum) came to 260 µM and the k cat was 230 s⁻¹. Moreover, the Michaelis-Menten constant (Km) in test [2] was 880 µM.

As to `C[C@@](O)(CO)[C@@H](O)COP(=O)(O)O`, 1360 µM corresponded to half-maximal inhibition in test [3] (IC50).

Consider `Nc1ncnc2c1ncn2[C@@H]1O[C@H](COP(=O)(O)OP(=O)(O)OP(=O)(O)O)[C@@H](O)[C@H]1O`, for which, in test [1], the Km came out at 9800 µM and the k cat is 230 s⁻¹. Also, the Km in test [2] was determined as 4800 µM.
